In patent US20230059136A1, “THE COMPOUNDS AND COMPOSITIONS FOR TREATING CONDITIONS ASSOCIATED WITH NLRP ACTIVITY” (Novartis AG, priority 2018, published 2023):

test system: IL-1β production in PMA-differentiated THP-1 cells; test: IL-1β production in PMA-differentiated THP-1 cells stimulated with gramicidin (hTHP-1 assay containing 2% fetal bovine serum); assay type: cell-based, human; details: Homo sapiens, THP-1, Table B1; 2% fetal bovine serum; cells printed as numeric bound; read-out: hTHP-1 IC50 (Average IC50 of compounds in hTHP-1 assay)
Method in brief: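 IL-1β release was read by HTRF on supernatants of 50,000 PMA-primed (20 ng/ml, 16-18 h) THP-1 cells/well in 2% FBS medium. Cells saw compound for 1 h (11-point titration from 100 μM, 0.37% DMSO) before a 2 h gramicidin (5 μM) challenge.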

| IC50 [µM] | Compound |
| --- | --- |
| > 30 | CC(C)c1cc(F)cc(C(C)C)c1C(C)C(=O)N=S(N)(=O)c1cnc(C(C)(C)O)s1 (single isomer, unassigned) [Example 195, (R, R) or (R, S)-N-(amino (2-(2-hydroxypropan-2-yl)thiazol-5-yl)(oxo)-λ^6-sulfaneylidene)-2-(4-fluoro-2,6-diisopropylphenyl) propanamide] |

same assay, conditions: Homo sapiens, THP-1, Table B1; 2% fetal bovine serum; class symbols; read-out: hTHP-1 IC50 (Average IC50 of compounds in hTHP-1 assay)

| IC50 [µM] | Compound |
| --- | --- |
| 1 to 5 | CC(C)c1cc2c(c(C(C)C)c1CC(=O)N=S(N)(=O)c1ccc(CN(C)C)cc1)COC2 (single isomer, unassigned) [Example 191, (R) or (S)-N-(amino(4-((dimethylamino)methyl)phenyl)(oxo)-λ^6-sulfaneylidene)-2-(4,6-diisopropyl-1,3-dihydroisobenzofuran-5-yl)acetamide] |
| 5 to 30 | CC(C)(O)c1ncc(S(N)(=O)=NC(=O)Cc2c(C3CC3)cc(F)cc2C(F)(F)F)s1 (single isomer, unassigned) [Example 196, (R) or (S)-N-(amino (2-(2-hydroxypropan-2-yl)thiazol-5-yl)(oxo)-λ^6-sulfaneylidene)-2-(2-cyclopropyl-4-fluoro-6-(trifluoromethyl)phenyl) acetamide] |

same assay, conditions: Table B1; 2% fetal bovine serum; class symbols; read-out: hTHP-1 IC50 (Average IC50 of compounds in hTHP-1 assay)

| IC50 [µM] | Compound |
| --- | --- |
| 0.2 to 1 | CC(C)c1cc(-c2ccc3c(c2)COCC3)cc(C(C)C)c1CC(=O)N=S(N)(=O)c1cnc(C(C)(C)O)s1 (single isomer, unassigned) [Example 171, (R) or (S)-N-(amino(2-(2-hydroxypropan-2-yl)thiazol-5-yl)(oxo)-λ^6-sulfaneylidene)-2-(4-(isochroman-7-yl)-2,6-diisopropylphenyl) acetamide] |
| 5 to 30 | CC(C)c1cc(-c2ccc3c(c2)COCC3)cc(C(C)C)c1CC(=O)N=S(N)(=O)c1cnc(C(C)(C)O)s1 (single isomer, unassigned) [Example 172, (S) or (R)-N-(amino(2-(2-hydroxypropan-2-yl)thiazol-5-yl)(oxo)-λ^6-sulfaneylidene)-2-(4-(isochroman-7-yl)-2,6-diisopropylphenyl) acetamide] |
| 0.2 to 1 | Cc1sc(S(N)(=O)=NC(=O)Cc2c(C(C)C)ccc(F)c2C(C)C)cc1C(C)(C)O (single isomer, unassigned) [Example 173, (R) or (S)-N-(amino(4-(2-hydroxypropan-2-yl)-5-methylthiophen-2-yl)(oxo)-λ^6-sulfaneylidene)-2-(3-fluoro-2,6-diisopropylphenyl) acetamide] |
| 5 to 30 | Cc1sc(S(N)(=O)=NC(=O)Cc2c(C(C)C)ccc(F)c2C(C)C)cc1C(C)(C)O (single isomer, unassigned) [Example 174, (S) or (R)-N-(amino(4-(2-hydroxypropan-2-yl)-5-methylthiophen-2-yl)(oxo)-λ^6-sulfaneylidene)-2-(3-fluoro-2,6-diisopropylphenyl) acetamide] |
| 0.2 to 1 | CC(C)c1cc2c(c(C(C)C)c1CC(=O)N=S(N)(=O)c1cnc(C(C)(C)O)s1)COC2 (single isomer, unassigned) [Example 183, (R) or (S)-N-(amino(2-(2-hydroxypropan-2-yl)thiazol-5-yl)(oxo)-λ^6-sulfaneylidene)-2-(4,6-diisopropyl-1,3-dihydro-isobenzofuran-5-yl)acetamide] |
| 5 to 30 | CC(C)c1cc2c(c(C(C)C)c1CC(=O)N=S(N)(=O)c1cnc(C(C)(C)O)s1)COC2 (single isomer, unassigned) [Example 184, (S) or (R)-N-(amino(2-(2-hydroxypropan-2-yl)thiazol-5-yl)(oxo)-λ^6-sulfaneylidene)-2-(4,6-diisopropyl-1,3-dihydro-isobenzofuran-5-yl)acetamide] |
| 0.04 to 0.2 | COCc1cc(C(C)C)c(CC(=O)N=S(N)(=O)c2ncc(C(C)(C)O)s2)c(C(C)C)c1 (single isomer, unassigned) [Example 185, (R) or (S)-N-(amino(5-(2-hydroxypropan-2-yl)thiazol-2-yl)(oxo)-λ^6-sulfaneylidene)-2-(2,6-diisopropyl-4-(methoxymethyl)phenyl)acetamide] |
| 5 to 30 | COCc1cc(C(C)C)c(CC(=O)N=S(N)(=O)c2ncc(C(C)(C)O)s2)c(C(C)C)c1 (single isomer, unassigned) [Example 186, (S) or (R)-N-(amino(5-(2-hydroxypropan-2-yl)thiazol-2-yl)(oxo)-λ^6-sulfaneylidene)-2-(2,6-diisopropyl-4-(methoxymethyl)phenyl)acetamide] |

The next lines start with the compound.

| Compound | IC50 [µM] |
| --- | --- |
| CC(C)c1cc(-c2ccc(Cl)c(Cl)c2)cc(C(C)C)c1CC(=O)N=S(N)(=O)c1ncc(C(C)(C)O)s1 (single isomer, unassigned) [Example 169, (S) or (R)-N-(amino(5-(2-hydroxypropan-2-yl)thiazol-2-yl)(oxo)-λ^6-sulfaneylidene)-2-(3′,4′-dichloro-3,5-diisopropyl-[1,1′-biphenyl]-4-yl)acetamide] | 1 to 5 |
| CC(C)c1cc(-c2ccc(Cl)c(Cl)c2)cc(C(C)C)c1CC(=O)N=S(N)(=O)c1ncc(C(C)(C)O)s1 (single isomer, unassigned) [Example 170, (R) or (S)-N-(amino(5-(2-hydroxypropan-2-yl)thiazol-2-yl)(oxo)-λ^6-sulfaneylidene)-2-(3′,4′-dichloro-3,5-diisopropyl-[1,1′-biphenyl]-4-yl)acetamide] | 0.2 to 1 |
| CC(C)c1ccc(F)c(C(C)C)c1CC(=O)N=S(N)(=O)c1ccc(C(C)(C)O)s1 (single isomer, unassigned) [Example 175, (S) or (R)-N-(amino(5-(2-hydroxypropan-2-yl)thiophen-2-yl)(oxo)-λ^6-sulfaneylidene)-2-(3-fluoro-2,6-diisopropylphenyl) acetamide] | 1 to 5 |
| CC(C)c1ccc(F)c(C(C)C)c1CC(=O)N=S(N)(=O)c1ccc(C(C)(C)O)s1 (single isomer, unassigned) [Example 176, (R) or (S)-N-(amino(5-(2-hydroxypropan-2-yl)thiophen-2-yl)(oxo)-λ^6-sulfaneylidene)-2-(3-fluoro-2,6-diisopropylphenyl) acetamide] | 0.2 to 1 |
| CC(C)c1cc(F)c(F)c(C(C)C)c1CC(=O)N=S(N)(=O)c1nc(C(C)(C)O)cs1 (single isomer, unassigned) [Example 177, (R) or (S)-N-(amino(4-(2-hydroxypropan-2-yl)thiazol-2-yl)(oxo)-λ^6-sulfaneylidene)-2-(3,4-difluoro-2,6-diisopropylphenyl) acetamide] | 0.04 to 0.2 |
| CC(C)c1cc(F)c(F)c(C(C)C)c1CC(=O)N=S(N)(=O)c1nc(C(C)(C)O)cs1 (single isomer, unassigned) [Example 178, (S) or (R)-N-(amino(4-(2-hydroxypropan-2-yl)thiazol-2-yl)(oxo)-λ^6-sulfaneylidene)-2-(3,4-difluoro-2,6-diisopropylphenyl) acetamide] | 1 to 5 |
| CC(C)c1ccc(C#N)c(C(C)C)c1CC(=O)N=S(N)(=O)c1nc(C(C)(C)O)cs1 (single isomer, unassigned) [Example 179, (R) or (S)-N-(amino(4-(2-hydroxypropan-2-yl)thiazol-2-yl)(oxo)-λ^6-sulfaneylidene)-2-(3-cyano-2,6-diisopropylphenyl) acetamide] | 0.2 to 1 |
| CC(C)c1ccc(C#N)c(C(C)C)c1CC(=O)N=S(N)(=O)c1nc(C(C)(C)O)cs1 (single isomer, unassigned) [Example 180, (S) or (R)-N-(amino(4-(2-hydroxypropan-2-yl)thiazol-2-yl)(oxo)-λ^6-sulfaneylidene)-2-(3-cyano-2,6-diisopropylphenyl) acetamide] | 5 to 30 |
| CC(C)c1ccc(F)c(C(C)C)c1CC(=O)N=S(N)(=O)c1nc(C(C)(C)O)cs1 (single isomer, unassigned) [Example 181, (R) or (S)-N-(amino(4-(2-hydroxypropan-2-yl)thiazol-2-yl)(oxo)-λ^6-sulfaneylidene)-2-(3-fluoro-2,6-diisopropylphenyl) acetamide] | 0.04 to 0.2 |
| CC(C)c1ccc(F)c(C(C)C)c1CC(=O)N=S(N)(=O)c1nc(C(C)(C)O)cs1 (single isomer, unassigned) [Example 182, (S) or (R)-N-(amino(4-(2-hydroxypropan-2-yl)thiazol-2-yl)(oxo)-λ^6-sulfaneylidene)-2-(3-fluoro-2,6-diisopropylphenyl) acetamide] | 5 to 30 |
| CC(C)c1ccc(F)c(C(C)C)c1CC(=O)N=S(N)(=O)c1ncc(C(C)(C)O)s1 (single isomer, unassigned) [Example 187, (S) or (R)-N-(amino(5-(2-hydroxypropan-2-yl)thiazol-2-yl)(oxo)-λ^6-sulfaneylidene)-2-(3-fluoro-2,6-diisopropylphenyl) acetamide] | 5 to 30 |
| CC(C)c1ccc(F)c(C(C)C)c1CC(=O)N=S(N)(=O)c1ncc(C(C)(C)O)s1 (single isomer, unassigned) [Example 188, (R) or (S)-N-(amino(5-(2-hydroxypropan-2-yl)thiazol-2-yl)(oxo)-λ^6-sulfaneylidene)-2-(3-fluoro-2,6-diisopropylphenyl) acetamide] | 0.2 to 1 |
| CC(C)c1cc(C#N)c(F)c(C(C)C)c1CC(=O)N=S(N)(=O)c1nc(C(C)(C)O)cs1 (single isomer, unassigned) [Example 189, (S) or (R)-N-(amino(4-(2-hydroxypropan-2-yl)thiazol-2-yl)(oxo)-λ^6-sulfaneylidene)-2-(4-cyano-3-fluoro-2,6-diisopropylphenyl) acetamide] | 1 to 5 |
| CC(C)c1cc(C#N)c(F)c(C(C)C)c1CC(=O)N=S(N)(=O)c1nc(C(C)(C)O)cs1 (single isomer, unassigned) [Example 190, (R) or (S)-N-(amino(4-(2-hydroxypropan-2-yl)thiazol-2-yl)(oxo)-λ^6-sulfaneylidene)-2-(4-cyano-3-fluoro-2,6-diisopropylphenyl) acetamide] | 0.04 to 0.2 |
